Assay results published in patent US20150328147A1, “METHOD FOR INTRODUCING BIOLOGICALLY ACTIVE SUBSTANCES INTO THE BRAIN” (BBU-VITA CORP., priority 2012, published 2015).
Like-named read-outs stand apart in the source and are kept apart here.

How the values were obtained:
[1] = tested on: haloperidol catalepsy model
Source text: The criteria of the evaluation: the change in spontaneous motor activity as the sum of movements of the rats in different groupings of the animals, in the “open field” test.

[2] = tested on: haloperidol catalepsy model; settings: for re-animation of spontaneous motor activity: nasal 2 × 50 μL after haloperidol i.p., dopamine 10^−2M (0.8 mg/kg), H2O2 10^−5M (34 ng/animal)
[3] = tested on: haloperidol catalepsy model; remark: listed apart in the source
Source text: The criteria of the evaluation: the change in spontaneous motor activity as the sum of movements of the rats in different groupings of the animals, in the “open field” test. The animal groups: control group: “intact control” (Group I), “haloperidol i.p.” (Group II), “haloperidol i.p.+nasal dopamine” (Group III), and “haloperidol i.p.+nasal L-arginine” in various concentrations (Groups IV and V).

[4] = tested on: haloperidol catalepsy model; settings: earlier demonstration (DE 102 48 601); cited from earlier work
[5] = tested on: sexually mature white rats; assay: Experiment 3: duration of phenobarbital sleep after single or fractionated nasal administration with H2O2; format: in vivo; settings: phenobarbital 90 mg/kg, H2O2 10^−5M
Source text: Experiment 3: The effect of phenobarbital was investigated experimentally on sexually mature white rats, using a nasal administration. The sleep duration conditioned by phenobarbital following nasal administration of phenobarbital was compared against the presence and absence of vaso-active and neuroactive substance. The typical results of an experiment are listed in Tab. 4.

[6] = with nasal dopamine 10^−3M, haloperidol model
[7] = Experiment 1, haloperidol i.p. 100 mg/kg, without H2O2, nasal dopamine 10^−3M where given, sum of movements, open field
[8] = Experiment 2, haloperidol i.p. 100 mg/kg, without L-arginine, nasal dopamine 10^−3M where given, sum of movements, open field

In the case of `OO` [H2O2, hydrogen peroxide], the Spontaneous activity ([1]; Experiment 1, haloperidol i.p., nasal H2O2 10^−4M (dopamine 10^−3M in the mixture)) was 1.8 ± 2.2 ^##), the Spontaneous activity ([1]; Experiment 1, haloperidol i.p., nasal H2O2 10^−5M) was 3 ± 1.9 ^##) and the “minimal effective concentration of the endonasal hydrogen peroxide” value [1, 6] was 10^−8 to 10^−10 M. For the same molecule, the “re-animation of spontaneous motor activity” value [2] was “did not re-animate the motor activity”.

In the case of `N=C(N)NCCC[C@H](N)C(=O)O` [L-arginine], the Spontaneous activity ([3]; Experiment 2, haloperidol i.p., nasal L-arginine 10^−3M (dopamine 10^−3M in the mixture)) was 6.4 ± 3.4 ^##), the Spontaneous activity ([3]; Experiment 2, haloperidol i.p., nasal L-arginine 10^−5M) was 4.8 ± 2.7 ^##) and the “minimal effective concentration of the endonasal L-arginine” value [3, 6] was ~10^−7 M. The “reanimation of spontaneous motor activity by L-arginine administered nasally together with dopamine” value [4] was “able to reanimate spontaneous motor activity”.

For `NCCc1ccc(O)c(O)c1` [dopamine], the Spontaneous activity [1, 7] was 2 ± 1.7 ^##), the Spontaneous activity [3, 8] was 2.6 ± 1.7 ^##) and the “re-animation of spontaneous motor activity” value [2] was “did not re-animate the motor activity”.

In the case of `O=C(CCCN1CCC(O)(c2ccc(Cl)cc2)CC1)c1ccc(F)cc1` [haloperidol], the Spontaneous activity [1, 7] was 3 ± 3 ^##), the Spontaneous activity [3, 8] was 3.7 ± 3 ^##) and the “reduction of spontaneous motor activity” value ([2]; single i.p. haloperidol 0.25 mg/kg, cataleptic response) was 85%.

In the case of `CCC1(c2ccccc2)C(=O)NC(=O)NC1=O` [phenobarbital], the “Duration of the experimental sleep (Minutes following the last administration)” value ([5]; single nasal application of the full dose 18 mg, 2 × 100 μL) was 128 ± 11.1 min and the “Duration of the experimental sleep (Minutes following the last administration)” value ([5]; triple nasal application of partial doses 3 × 6 (mg), interval 60 s) was 161 ± 21.1 min.
